Data from patent publication US9650635B2, “Pharmaceutical compositions comprising small interfering RNA inhibitors of NOX3” (UNIVERSITY OF GENEVA, priority 2004, dated 2017).

Experiments:
Type in all cases: cell-based
[1] = target: T1, NOX3/NOXO1/NOXA1 (Mus musculus, UniProt Q672J9, D161Y); assay: Superoxide production of HEK293 cells expressing NOX3/NOXO1/NOXA1 (luminol-amplified chemiluminescence)
T1 construct: expressed in transfected cells
Method: (§1) HEK293 were maintained in Dulbecco's Modified Eagle's Medium/Ham's Nutrient Mixture F12 that was supplemented with 10% fetal calf serum, penicillin (100 units/ml), streptomycin (100 μg/ml), and 4 mmol/liter L-glutamine. NOX3-, NOXO1-, NOXA1-, p47^phox, and p67^phox cDNAs were subcloned into pcDNA3.1 (Invitrogen, Groningen, Netherlands) and transfected into HEK293 cells with the Effectene transfection system (Qiagen). To obtain stable clones, NOX3, NOXO1, NOXA1-transfected HEK293 cells were selected with 400 μg/ml G418 starting on the 2nd day after the transfection. After 14 days of selection, 24 surviving clones were tested for superoxide production. The positive clones were verified to express NOX3-, NOXO1-, and NOXA1 RNA by RT-RCR.
(§2) ROS generation was measured by the peroxidase-dependent luminol-amplified chemiluminescence technique (referred to as luminol-amplified chemiluminescence) in 96 well microplates using Luminometer Wallac 1420 Multilabel Counter (PerkinElmer Life Sciences). Measurements were performed in Hanks' balanced salt solution supplemented with 1 mg/ml D-glucose, 1 unit/ml horseradish peroxidase, and 250 μM luminol. In some experiments, phorbol ester (PMA) was added during the measurements to 100 nM final concentration. When the effect of cisplatin or 5-Fluorouracil (5-FU) was investigated, these compounds were pre-incubated with the cells for the indicated time and concentration in cell culture medium. Before ROS measurements, the cell culture medium was exchanged with the assay solution and chemiluminescence or absorption (see below) was measured at 37° C. After measurements cells were counted, and the results were normalized to 150,000 cells. Extracellular superoxide production was measured in 96-well microplates at 550 nm as the SOD-sensitive reduction of 100 μM ferricytochrome C (referred to as cytochrome C reduction technique). The O^−2 production was calculated using an absorption coefficient of 21.1 mM^−1 cm^−1 and normalized to 10^7 cells.

[2] = target: T2, NOX3, p47^phox, and p67^phox (Mus musculus, UniProt Q672J9, D161Y); assay: Superoxide production of HEK293 cells co-transfected with NOX3, p47phox and p67phox
T2 construct: expressed in transfected cells; host or cells: HEK293, transient co-transfection, pcDNA3.1
T2 sequence (Q672J9 1-568 D161Y): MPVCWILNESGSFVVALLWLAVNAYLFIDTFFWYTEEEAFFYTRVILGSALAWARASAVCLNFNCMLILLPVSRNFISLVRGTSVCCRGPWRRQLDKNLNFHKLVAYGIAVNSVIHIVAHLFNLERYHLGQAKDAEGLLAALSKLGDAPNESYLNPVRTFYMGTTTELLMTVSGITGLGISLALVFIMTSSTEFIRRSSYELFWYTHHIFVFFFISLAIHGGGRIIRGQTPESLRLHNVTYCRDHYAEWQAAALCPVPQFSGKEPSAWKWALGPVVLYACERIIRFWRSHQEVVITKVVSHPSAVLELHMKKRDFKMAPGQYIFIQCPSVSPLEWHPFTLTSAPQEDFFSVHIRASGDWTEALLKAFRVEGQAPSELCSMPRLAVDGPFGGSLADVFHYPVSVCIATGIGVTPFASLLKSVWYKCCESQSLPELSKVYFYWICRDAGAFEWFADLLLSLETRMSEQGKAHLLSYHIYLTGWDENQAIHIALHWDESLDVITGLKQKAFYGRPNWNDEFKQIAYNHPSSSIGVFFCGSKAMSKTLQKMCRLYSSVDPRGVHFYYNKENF
T2 sequence (P13498 1-195 partner): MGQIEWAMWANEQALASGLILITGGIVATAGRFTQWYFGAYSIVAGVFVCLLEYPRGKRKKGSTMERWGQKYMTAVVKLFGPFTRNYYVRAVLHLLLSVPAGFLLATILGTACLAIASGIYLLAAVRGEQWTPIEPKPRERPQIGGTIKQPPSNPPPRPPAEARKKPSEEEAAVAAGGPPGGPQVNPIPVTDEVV
Method: as §1, §2

[3] = test system: HEK293 cells transfected with control vector (pcDNA3.1); assay: Superoxide production of HEK293 cells transfected with control vector; settings: control-transfected (pcDNA3.1) HEK293 cells, 20 μM cisplatin, 12 hours
Method: as §1, with “The positive clones were verified to express NOX3-, NOXO1-, and NOXA1 RNA by RT-RCR.” left out
(§3) ROS generation was measured by the peroxidase-dependent luminol-amplified chemiluminescence technique (referred to as luminol-amplified chemiluminescence) in 96 well microplates using Luminometer Wallac 1420 Multilabel Counter (PerkinElmer Life Sciences). […] Before ROS measurements, the cell culture medium was exchanged with the assay solution and chemiluminescence or absorption (see below) was measured at 37° C. After measurements cells were counted, and the results were normalized to 150,000 cells. Extracellular superoxide production was measured in 96-well microplates at 550 nm as the SOD-sensitive reduction of 100 μM ferricytochrome C (referred to as cytochrome C reduction technique). […]

[4] = target: T3, NOX3 (Mus musculus, UniProt Q672J9, D161Y); assay: Superoxide production of HEK293 cells transfected with NOX3 alone (luminol-amplified chemiluminescence / Diogenes / cytochrome C reduction)
T3 construct: expressed in transfected cells; host or cells: HEK293, transient transfection, pcDNA3.1
T3 sequence (Q672J9 1-568 D161Y): T2 sequence (Q672J9 1-568 D161Y)
T3 sequence (P13498 1-195 partner): T2 sequence (P13498 1-195 partner)
Method: as §1, §2

[5] = target: T4, p47^phox, NOXA1, and NOX3 (Mus musculus, UniProt Q672J9, D161Y); assay: Superoxide production of HEK293 cells expressing p47phox, NOXA1 and NOX3; settings: 100 nM PMA
T4 construct: expressed in transfected cells; host or cells: HEK293, transient co-transfection, pcDNA3.1
T4 sequence (Q672J9 1-568 D161Y): T2 sequence (Q672J9 1-568 D161Y)
T4 sequence (P13498 1-195 partner): T2 sequence (P13498 1-195 partner)
Method: as §1, with “The positive clones were verified to express NOX3-, NOXO1-, and NOXA1 RNA by RT-RCR.” left out
as §3

[6] = target: T5, NOXO1, p67^phox, and NOX3 (Mus musculus, UniProt Q672J9, D161Y); assay: Superoxide production of HEK293 cells expressing NOXO1, p67phox and NOX3; settings: 100 nM PMA
T5 construct: expressed in transfected cells; host or cells: HEK293, transient co-transfection, pcDNA3.1
T5 sequence (Q8NFA2 whole entry partner, one chain of several): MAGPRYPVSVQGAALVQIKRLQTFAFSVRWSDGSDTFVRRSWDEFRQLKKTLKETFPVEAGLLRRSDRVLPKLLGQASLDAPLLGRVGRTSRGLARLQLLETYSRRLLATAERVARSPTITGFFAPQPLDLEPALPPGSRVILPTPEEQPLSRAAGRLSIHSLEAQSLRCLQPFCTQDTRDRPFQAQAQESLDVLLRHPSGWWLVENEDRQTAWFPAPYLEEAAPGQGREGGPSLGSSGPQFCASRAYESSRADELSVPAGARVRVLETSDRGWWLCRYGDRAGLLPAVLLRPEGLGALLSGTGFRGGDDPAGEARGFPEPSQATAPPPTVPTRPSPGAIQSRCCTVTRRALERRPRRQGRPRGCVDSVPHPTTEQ
T5 sequence (P19878 whole entry partner, one chain of several): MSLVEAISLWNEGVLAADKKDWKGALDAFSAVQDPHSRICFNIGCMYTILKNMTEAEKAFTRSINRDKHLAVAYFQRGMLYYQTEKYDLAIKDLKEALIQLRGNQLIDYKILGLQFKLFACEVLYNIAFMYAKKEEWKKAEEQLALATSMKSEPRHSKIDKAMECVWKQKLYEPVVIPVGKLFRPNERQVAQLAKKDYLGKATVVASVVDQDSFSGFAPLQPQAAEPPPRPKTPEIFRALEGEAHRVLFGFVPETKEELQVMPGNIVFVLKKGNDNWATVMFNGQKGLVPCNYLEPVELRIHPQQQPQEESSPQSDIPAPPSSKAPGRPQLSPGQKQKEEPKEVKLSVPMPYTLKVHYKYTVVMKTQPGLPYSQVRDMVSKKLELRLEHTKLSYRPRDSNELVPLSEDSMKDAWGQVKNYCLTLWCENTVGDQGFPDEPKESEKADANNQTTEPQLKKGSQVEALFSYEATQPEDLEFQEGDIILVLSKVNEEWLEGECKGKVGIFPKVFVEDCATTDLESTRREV
Method: as §1, with “The positive clones were verified to express NOX3-, NOXO1-, and NOXA1 RNA by RT-RCR.” left out
as §3

[7] = stable clone, 12 hours incubation

T1 sequence (Q8NFA2 whole entry partner, one chain of several): as the sequence (Q8NFA2 whole entry partner, one chain of several) above
T1 sequence (Q86UR1 whole entry partner, one chain of several): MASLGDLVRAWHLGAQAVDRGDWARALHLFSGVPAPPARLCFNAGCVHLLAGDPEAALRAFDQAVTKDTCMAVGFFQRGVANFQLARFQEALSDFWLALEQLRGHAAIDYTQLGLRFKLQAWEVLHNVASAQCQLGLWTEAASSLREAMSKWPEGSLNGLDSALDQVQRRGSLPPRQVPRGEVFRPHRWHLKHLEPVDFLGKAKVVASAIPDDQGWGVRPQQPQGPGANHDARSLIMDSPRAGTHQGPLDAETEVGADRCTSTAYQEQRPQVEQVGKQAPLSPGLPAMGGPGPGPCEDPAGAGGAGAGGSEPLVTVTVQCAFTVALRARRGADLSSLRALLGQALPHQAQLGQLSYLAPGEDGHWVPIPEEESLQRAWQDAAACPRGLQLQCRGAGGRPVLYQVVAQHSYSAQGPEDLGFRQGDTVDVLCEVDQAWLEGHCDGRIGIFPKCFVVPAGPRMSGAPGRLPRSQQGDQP

## O=c1[nH]cc(F)c(=O)[nH]1 [5-fluorouracil, 5-Fluorouracil]
[1]; 100 μM, 17 hours, data not shown
  effect of 5-fluorouracil on superoxide production: did not influence superoxide production

## N.N.[Cl][Pt][Cl] [Cisplatin]
[1]; stable HEK293 clones, 20 μM cisplatin, 12 hours
  effect of cisplatin on superoxide production: marked increase of superoxide production
[1]; stable clone, 20 μM cisplatin
  t50 of NOX3 activation: 11.5 ± 1.7 h
  treatment time at which NOX3 activity is already enhanced: 5 h
  treatment time to maximal effect: around 17 hours
[1]; [7]
  concentration at which NOX3-dependent ROS generation is already increased: 1 µM
  concentration with maximal effect on NOX3-dependent ROS generation: 20 µM
[1]; stable clone, 12 hours incubation, read-out: EC50 of NOX3 activation
  EC50: 3.6 µM
[2]; 20 μM cisplatin, 12 hours
  factor of enhancement of superoxide production: approximately 3.3
[3]
  effect of cisplatin on superoxide production: not in control-transfected cells
[4]; NOX3-transfected HEK293 cells, 20 μM cisplatin, 12 hours, before PMA addition
  effect of cisplatin on superoxide production: elicited superoxide production

## c1ccc2c(c1)[I+]c1ccccc1-2 [DPI, diphenylene iodonium]
[1]; stable HEK293 clones, with or without cisplatin, 5 μM DPI
  effect of DPI on superoxide generation: abolished
[2]; cisplatin-treated cells, 5 μM DPI, not shown
  effect of DPI on superoxide production: blocked
[4]; NOX3-transfected HEK293 cells, cisplatin and PMA treated, 5 μM DPI
  effect of DPI on superoxide generation: blocked it completely

## CCCCCCCCCCCCCC(=O)O[C@@H]1[C@@H](C)[C@@]2(O)[C@@H](C=C(CO)C[C@]3(O)C(=O)C(C)=C[C@@H]23)[C@@H]2C(C)(C)[C@]12OC(C)=O [PMA, phorbol 12-myristate 13-acetate]
[1]; NOX3/NOXO1/NOXA1 HEK293 cells, 100 nM PMA
  effect of PMA on superoxide generation: insensitive to PMA
[2]; 100 nM PMA
  effect of PMA on NOX3 activity: strong enhancement of NOX3 activity
[5]
  effect of PMA on superoxide production: largely PMA-dependent
[6]
  effect of PMA on superoxide generation: could not be further enhanced by PMA
[4]; NOX3-transfected HEK293 cells pre-incubated with 20 μM cisplatin, 100 nM PMA
  effect of PMA on superoxide generation after cisplatin: further increased superoxide generation
[4]; NOX3-transfected HEK293 cells, no other subunits, 100 nM PMA
  superoxide generation in the presence of PMA: low amounts of superoxide
